The target in one assay is T1, human Nav1.8 (Homo sapiens, UniProt Q9Y5Y9).
T1 construct: expressed in transfected cells; host or cells: HEK293 (HEK293-Nav1.8)
T1 sequence (Q9Y5Y9 whole entry): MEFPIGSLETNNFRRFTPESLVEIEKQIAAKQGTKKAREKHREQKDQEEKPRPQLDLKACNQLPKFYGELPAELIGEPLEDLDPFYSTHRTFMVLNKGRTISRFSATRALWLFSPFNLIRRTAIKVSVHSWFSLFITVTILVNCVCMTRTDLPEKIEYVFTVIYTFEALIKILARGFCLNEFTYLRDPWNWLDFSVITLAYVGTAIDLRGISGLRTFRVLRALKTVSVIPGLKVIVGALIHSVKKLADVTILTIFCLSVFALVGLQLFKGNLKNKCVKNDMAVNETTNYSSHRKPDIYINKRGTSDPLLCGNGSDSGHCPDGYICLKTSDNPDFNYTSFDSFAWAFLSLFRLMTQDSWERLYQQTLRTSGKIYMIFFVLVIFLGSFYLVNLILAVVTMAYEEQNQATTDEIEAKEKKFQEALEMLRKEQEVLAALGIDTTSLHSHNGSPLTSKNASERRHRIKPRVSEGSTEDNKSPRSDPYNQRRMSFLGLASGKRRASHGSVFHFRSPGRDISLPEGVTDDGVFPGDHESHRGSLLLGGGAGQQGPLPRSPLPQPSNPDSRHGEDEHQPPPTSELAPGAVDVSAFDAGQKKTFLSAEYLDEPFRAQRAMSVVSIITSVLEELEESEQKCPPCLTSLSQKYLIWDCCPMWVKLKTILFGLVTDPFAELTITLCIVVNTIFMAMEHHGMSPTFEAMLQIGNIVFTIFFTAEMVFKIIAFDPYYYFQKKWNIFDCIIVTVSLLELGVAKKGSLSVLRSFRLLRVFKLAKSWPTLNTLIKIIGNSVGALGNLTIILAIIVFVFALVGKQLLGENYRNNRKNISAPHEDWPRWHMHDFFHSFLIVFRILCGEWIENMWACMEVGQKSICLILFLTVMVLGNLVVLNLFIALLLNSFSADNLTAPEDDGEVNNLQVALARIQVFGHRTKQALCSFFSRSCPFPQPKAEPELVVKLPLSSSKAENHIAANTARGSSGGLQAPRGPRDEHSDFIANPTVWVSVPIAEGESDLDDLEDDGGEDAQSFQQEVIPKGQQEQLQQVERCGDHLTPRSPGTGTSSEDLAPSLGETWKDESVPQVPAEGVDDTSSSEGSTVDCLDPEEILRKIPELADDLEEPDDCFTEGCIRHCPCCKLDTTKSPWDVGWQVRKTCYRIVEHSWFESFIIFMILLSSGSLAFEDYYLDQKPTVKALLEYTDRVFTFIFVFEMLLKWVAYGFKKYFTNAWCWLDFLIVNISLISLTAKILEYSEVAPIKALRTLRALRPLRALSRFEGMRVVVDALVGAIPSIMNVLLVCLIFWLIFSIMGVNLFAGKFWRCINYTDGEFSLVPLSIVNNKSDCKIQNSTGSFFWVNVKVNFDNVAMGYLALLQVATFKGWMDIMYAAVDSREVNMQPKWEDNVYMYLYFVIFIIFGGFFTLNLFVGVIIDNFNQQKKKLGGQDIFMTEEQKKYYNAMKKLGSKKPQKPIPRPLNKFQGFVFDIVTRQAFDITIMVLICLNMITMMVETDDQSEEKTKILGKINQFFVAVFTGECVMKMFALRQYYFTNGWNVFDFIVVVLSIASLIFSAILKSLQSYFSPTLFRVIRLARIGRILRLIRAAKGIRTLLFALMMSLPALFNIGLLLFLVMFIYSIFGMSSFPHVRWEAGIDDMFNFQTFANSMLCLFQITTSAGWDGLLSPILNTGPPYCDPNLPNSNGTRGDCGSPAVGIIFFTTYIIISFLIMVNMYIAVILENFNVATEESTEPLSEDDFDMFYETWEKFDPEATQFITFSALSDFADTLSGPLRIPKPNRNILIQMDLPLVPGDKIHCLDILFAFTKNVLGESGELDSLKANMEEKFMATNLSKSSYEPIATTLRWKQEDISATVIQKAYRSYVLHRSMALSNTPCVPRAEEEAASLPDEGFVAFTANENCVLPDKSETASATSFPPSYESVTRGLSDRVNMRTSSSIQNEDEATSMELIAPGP
T1 sequence (Q07699 19-218 partner): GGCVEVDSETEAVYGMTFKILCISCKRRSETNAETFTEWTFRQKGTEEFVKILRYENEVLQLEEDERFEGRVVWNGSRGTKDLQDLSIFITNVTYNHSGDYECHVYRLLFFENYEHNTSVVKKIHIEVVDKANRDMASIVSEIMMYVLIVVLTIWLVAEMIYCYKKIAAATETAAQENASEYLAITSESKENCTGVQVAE
The assay is described as follows: Nav1.8 sodium channels assay, QPatch 48 HTX electrophysiology in HEK293-Nav1.8 cells. The class given is cell-based. Particulars: Table 1; HEK293-Nav1.8, QPatch 48 HTX, half inactivation state voltage protocol (V1/2); single run or average of two or more runs; read-out: Nav1.8 pIC50 (converted). The method in brief:
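IC50 came from 6-8 point curves of P2 current amplitude, normalized to baseline and a positive reference, and corrected for run-down using vehicle-only wells. Automated patch clamp used HEK293-Nav1.8 (with Navβ1 and TREK1) at pH 7.4 outside and CsF-based solution inside. An 8 s inactivating step at −46 mV preceded the 0 mV test pulse, repeated at 0.07 Hz.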
For orientation: Patch clamp records ionic current or voltage across a cell membrane.
As to `Cc1[nH]c(=O)ccc1N1CN(c2ccc(F)cc2)c2ccccc2C1=O` [drawing 294, 1-(4-fluorophenyl)-3-(2-methyl-6-oxo-1,6-dihydropyridin-3-yl)-2,3-dihydroquinazolin-4(1H)-one], the IC50 is 5010 nM.

Take `Cc1cc(F)ccc1N1CN(c2ccc(=O)[nH]c2)C(=O)c2ccc(C(F)(F)F)cc21` [drawing 261, 1-(4-fluoro-2-methylphenyl)-3-(6-oxo-1,6-dihydropyridin-3-yl)-7-(trifluoromethyl)-2,3-dihydroquinazolin-4(1H)-one]: the IC50 is 126 nM.

With `COc1cc(F)ccc1N1CN(c2ccc(=O)[nH]c2)C(=O)c2ccc(C(F)(F)F)cc21` [drawing 264, 1-(4-fluoro-2-methoxyphenyl)-3-(6-oxo-1,6-dihydropyridin-3-yl)-7-(trifluoromethyl)-2,3-dihydroquinazolin-4(1H)-one], the IC50 was 316 nM.

Staying with this assay, now noted: at least one set of experimental runs; read-out: average pIC50 value against Nav1.8 (converted).
Turning to `CCc1cc(F)ccc1N1CN(c2ccncc2C)C(=O)c2cc(Cl)c(C#N)cc21` [Example 243, 6-chloro-1-(2-ethyl-4-fluorophenyl)-3-(3-methylpyridin-4-yl)-4-oxo-1,2,3,4-tetrahydroquin-azoline-7-carbonitrile], the IC50 is 126 to 631 nM.

Regarding `Cc1[nH]c(=O)ccc1N1CN([C@@H]2CCCC[C@@H]2C)c2cc(C(F)(F)F)ccc2C1=O` [Example 162, 3-(2-methyl-6-oxo-1,6-dihydropyridin-3-yl)-1-((1R,2S)-2-methylcyclohexyl)-7-(trifluoromethyl)-2,3-dihydroquinazolin-4(1H)-one], the IC50 was at most 100 nM.

As to `Cc1cc(F)ccc1N1CN(c2cccnc2)C(=O)c2ccc(C(F)(F)F)cc21` [Example 2], the IC50 was 794 to 7940 nM.

In the case of `Cc1cc(F)ccc1N1CN(C2CNC(=O)NC2)C(=O)c2ccc(C(F)(F)F)cc21` [Example 270, 1-(4-fluoro-2-methylphenyl)-3-(2-oxohexahydro-pyrimidin-5-yl)-7-(trifluoromethyl)-2,3-dihydroquinazolin-4(1H)-one], the IC50 is 126 to 631 nM.

Consider `Cc1cc(F)ccc1N1CN(c2ccc(=O)[nH]c2)C(=O)c2ccc(C#N)cc21` [Example 222, 1-(4-fluoro-2-methylphenyl)-4-oxo-3-(6-oxo-1,6-dihydropyridin-3-yl)-1,2,3,4-tetrahydro-quinazoline-7-carbonitrile], for which the IC50 was 794 to 7940 nM.

As for `Cc1cc(F)ccc1N1CN(c2ccc[nH]c2=O)C(=O)c2ccc(C(F)(F)F)cc21` [Example 204, 1-(4-fluoro-2-methylphenyl)-3-(2-oxo-1,2-dihydropyridin-3-yl)-7-(trifluoromethyl)-2,3-dihydroquinazolin-4(1H)-one], the IC50 is 794 to 7940 nM.

For the molecule `Cc1c[n+]([O-])ccc1N1CN(c2ccc(F)cc2C)c2ccc(C(F)(F)F)cc2C1=O` [Example 254, 4-(1-(4-fluoro-2-methylphenyl)-4-oxo-6-(trifluoromethyl)-1,4-dihydroquinazolin-3(2H)-yl)-3-methylpyridine 1-oxide], the IC50 was 126 to 631 nM.

In the case of `Cc1[nH]c(=O)ccc1N1CN([C@@H]2CCOC[C@@H]2C)c2cc(C(F)(F)F)ccc2C1=O` [Example 282, 3-(2-Methyl-6-oxo-1,6-dihydropyridin-3-yl)-1-((3R,4R)-3-methyltetrahydro-2H-pyran-4-yl)-7-(trifluoromethyl)-2,3-dihydroquinazolin-4(1H)-one], the IC50 is 794 to 7940 nM.

As for `Cc1[nH]c(=O)ccc1N1CN(c2cccc(C#N)c2C)c2ccc(Cl)cc2C1=O` [Example 128, 3-(6-chloro-3-(2-methyl-6-oxo-1,6-dihydropyridin-3-yl)-4-oxo-3,4-dihydroquinazolin-1(2H)-yl)-2-methylbenzonitrile], the IC50 is 126 to 631 nM.

With `Cc1cc(F)ccc1N1CN(c2ccc(=O)[nH]c2C)C(=O)c2ccc(OC(F)F)cc21` [Example 185, 7-(difluoromethoxy)-1-(4-fluoro-2-methylphenyl)-3-(2-methyl-6-oxo-1,6-dihydropyridin-3-yl)-2,3-dihydroquinazolin-4(1H)-one], the IC50 is at most 100 nM.

With `Cc1cc(F)ccc1N1CN(c2ncc(=O)[nH]c2C)C(=O)c2ccc(C(F)(F)F)cc21` [Example 58, 1-(4-fluoro-2-methylphenyl)-3-(3-methyl-5-oxo-4,5-dihydropyrazin-2-yl)-7-(trifluoromethyl)-2,3-dihydroquinazolin-4(1H)-one], the IC50 is 126 to 631 nM.

On to `CCc1[nH]c(=O)ccc1N1CN(c2ccc(F)cc2C)c2ccc(Cl)cc2C1=O` [Example 106, 6-chloro-3-(2-ethyl-6-oxo-1,6-dihydropyridin-3-yl)-1-(4-fluoro-2-methylphenyl)-2,3-dihydroquinazolin-4(1H)-one], for which the IC50 is at most 100 nM.

For the molecule `COc1cc2c(cc1C(F)(F)F)N(c1ccc(F)cc1C)CN(c1ccc(=O)[nH]c1C)C2=O` [Example 101, 1-(4-fluoro-2-methylphenyl)-6-methoxy-3-(2-methyl-6-oxo-1,6-dihydropyridin-3-yl)-7-(trifluoromethyl)-2,3-dihydroquinazolin-4(1H)-one], the IC50 was at most 100 nM.

For `O=C1c2ccc(C(F)(F)F)cc2N(c2ccc(F)cc2Cl)CN1c1ccc(=O)[nH]c1` [Example 40, 1-(2-chloro-4-fluorophenyl)-3-(6-oxo-1,6-dihydropyridin-3-yl)-7-(trifluoromethyl)-2,3-dihydroquinazolin-4(1H)-one], the IC50 was 126 to 631 nM.

As for `Cc1cc(F)ccc1N1CN(c2ccc(=O)n(C)c2C)C(=O)c2cc(C(F)(F)F)ccc21` [Example 209, 3-(1,2-dimethyl-6-oxo-1,6-dihydropyridin-3-yl)-1-(4-fluoro-2-methylphenyl)-6-(trifluoromethyl)-2,3-dihydroquinazolin-4(1H)-one], the IC50 is 126 to 631 nM.

Consider `Cc1cc(F)ccc1N1CN(c2ccc(=O)[nH]c2C)C(=O)c2cc(C(F)(F)F)ccc21` [Example 297, 1-(4-fluoro-2-methylphenyl)-3-(2-methyl-6-oxo-1,6-dihydropyridin-3-yl)-6-(trifluoromethyl)-2,3-dihydroquinazolin-4(1H)-one], for which the IC50 is at most 100 nM.

With `CCc1[nH]c(=O)ccc1N1CN(c2ccc(F)cc2C(C)C)c2ccc(Cl)cc2C1=O` [Example 139, 6-chloro-3-(2-ethyl-6-oxo-1,6-dihydropyridin-3-yl)-1-(4-fluoro-2-isopropylphenyl)-2,3-dihydroquinazolin-4(1H)-one], the IC50 is at most 100 nM.

`Cc1[nH]c(=O)ccc1N1CN(c2ccc(F)cc2N(C)C)c2ccc(Cl)cc2C1=O` [Example 200, 6-chloro-1-(2-(dimethylamino)-4-fluorophenyl)-3-(2-methyl-6-oxo-1,6-dihydropyridin-3-yl)-2,3-dihydroquinazolin-4(1H)-one]: the IC50 was at most 100 nM.

As to `Cc1cc(F)ccc1N1CN(c2ccc(=O)[nH]c2)C(=O)c2c1ccc(Cl)c2F` [Example 78, 6-chloro-5-fluoro-1-(4-fluoro-2-methylphenyl)-3-(6-oxo-1,6-dihydropyridin-3-yl)-2,3-dihydroquinazolin-4(1H)-one], the IC50 is 126 to 631 nM.

For `Cc1cc(O)ccc1N1CN(c2ccc(=O)[nH]c2C)C(=O)c2cc(C(F)(F)F)ccc21` [Example 127, 1-(4-hydroxy-2-methylphenyl)-3-(2-methyl-6-oxo-1,6-dihydropyridin-3-yl)-6-(trifluoromethyl)-2,3-dihydroquinazolin-4(1H)-one], the IC50 is 126 to 631 nM.

As to `Cc1cc(F)ccc1N1CN(c2ccc(=O)[nH]n2)C(=O)c2ccc(C(F)(F)F)cc21` [Example 219, 1-(4-fluoro-2-methylphenyl)-3-(6-oxo-1,6-dihydropyridazin-3-yl)-7-(trifluoromethyl)-2,3-dihydroquinazolin-4(1H)-one], the IC50 was 794 to 7940 nM.

In the case of `Cc1cc(F)ccc1N1CN(c2c[nH]c(=O)nc2C)C(=O)c2cc(Cl)ccc21` [Example 61, 6-chloro-1-(4-fluoro-2-methylphenyl)-3-(4-methyl-2-oxo-1,2-dihydropyrimidin-5-yl)-2,3-dihydroquinazolin-4(1H)-one], the IC50 is at most 100 nM.

In the case of `Cc1[nH]c(=O)ccc1N1CN(c2ccc(F)cc2C2CC2)c2cc(C(F)(F)F)ccc2C1=O` [Example 182, 1-(2-cyclopropyl-4-fluorophenyl)-3-(2-methyl-6-oxo-1,6-dihydropyridin-3-yl)-7-(trifluoromethyl)-2,3-dihydroquinazolin-4(1H)-one], the IC50 was at most 100 nM.

In the case of `Cc1ccc(N2CN(c3ccc(=O)[nH]c3C)C(=O)c3cc(Cl)ccc32)c(O)c1` [Example 133, 6-chloro-1-(2-hydroxy-4-methylphenyl)-3-(2-methyl-6-oxo-1,6-dihydropyridin-3-yl)-2,3-dihydroquinazolin-4(1H)-one], the IC50 is 794 to 7940 nM.

Take `Cc1[nH]c(=O)ccc1N1CN(c2ccc(F)cc2C(C)C)c2ncc(C(F)(F)F)cc2C1=O` [Example 63]: the IC50 is at most 100 nM.

For `COc1cc(F)ccc1N1CN(c2ccc(=O)[nH]c2)C(=O)c2ccc(C(F)(F)F)cc21` [Example 216, 1-(4-fluoro-2-methoxyphenyl)-3-(6-oxo-1,6-dihydropyridin-3-yl)-7-(trifluoromethyl)-2,3-dihydroquinazolin-4(1H)-one], the IC50 was 126 to 631 nM.

Turning to `CCc1cc(F)ccc1N1CN(c2ccc(=O)[nH]c2C)C(=O)c2cc(F)ccc21` [Example 116, 1-(2-ethyl-4-fluorophenyl)-6-fluoro-3-(2-methyl-6-oxo-1,6-dihydropyridin-3-yl)-2,3-dihydroquinazolin-4(1H)-one], the IC50 was at most 100 nM.

Turning to `Cc1cc(F)ccc1N1CN(c2ccc(=O)[nH]c2)C(=O)c2ccc(C(F)(F)F)c(Cl)c21` [Example 44, 8-chloro-1-(4-fluoro-2-methylphenyl)-3-(6-oxo-1,6-dihydropyridin-3-yl)-7-(trifluoromethyl)-2,3-dihydroquinazolin-4(1H)-one], the IC50 was 794 to 7940 nM.

These data come from patent publication US20230103791A1 (GLAXOSMITHKLINE INTELLECTUAL PROPERTY DEVELOPMENT LIMITED, priority 2019, published 2023).
